20 compounds from ChEMBL document CHEMBL3046747, “Assessment of species specificity of moulting accelerating compounds in Lepidoptera: comparison of activity between Bombyx mori and Spodoptera littoralis by in vitro reporter and in vivo toxicity assays” (Pest Manag Sci, 2010) can be followed below.

Structures are written as SMILES.

The nature of experiment [1]: Selectivity ratio of EC50 for ecdysone receptor in Bombyx mori Bm5 cells to EC50 for ecdysone receptor in Spodoptera littoralis Sl2 cells. It is filed as cell-based.
Experiment [2] relates to Spodoptera littoralis. The experiment is described as follows: Larvicidal activity against Spodoptera littoralis assessed as mortality applied topically after 1 week. The experiment is classed as functional.
Experiment [3] deals with T1, Ecdysone receptor (Spodoptera littoralis, UniProt E3UJZ5).
T1 sequence (E3UJZ5 whole entry): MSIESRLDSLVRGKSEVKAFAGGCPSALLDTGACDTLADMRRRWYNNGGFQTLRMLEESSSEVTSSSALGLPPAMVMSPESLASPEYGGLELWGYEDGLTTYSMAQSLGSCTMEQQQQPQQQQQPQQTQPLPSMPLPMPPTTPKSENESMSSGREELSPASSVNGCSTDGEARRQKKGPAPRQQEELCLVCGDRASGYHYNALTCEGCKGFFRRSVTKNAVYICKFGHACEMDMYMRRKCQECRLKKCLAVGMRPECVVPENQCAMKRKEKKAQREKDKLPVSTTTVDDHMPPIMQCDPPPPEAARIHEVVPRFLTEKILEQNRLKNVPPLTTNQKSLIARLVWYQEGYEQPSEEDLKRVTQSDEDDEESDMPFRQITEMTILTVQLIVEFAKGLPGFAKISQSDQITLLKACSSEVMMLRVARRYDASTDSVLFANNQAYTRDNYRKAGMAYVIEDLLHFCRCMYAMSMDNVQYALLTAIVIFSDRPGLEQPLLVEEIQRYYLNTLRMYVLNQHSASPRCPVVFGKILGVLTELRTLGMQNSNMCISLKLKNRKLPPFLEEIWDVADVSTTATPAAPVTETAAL
Nature of the experiment: Agonist activity at ecdysone receptor in Spodoptera littoralis Sl2 cells after 24 hr by luciferase reporter gene assay. It is filed as cell-based. The note with it: read-out: pEC50 (converted).

Experiment [4] has as its target T2, Ecdysone receptor (Bombyx mori) (UniProt P49881).
T2 sequence (whole entry): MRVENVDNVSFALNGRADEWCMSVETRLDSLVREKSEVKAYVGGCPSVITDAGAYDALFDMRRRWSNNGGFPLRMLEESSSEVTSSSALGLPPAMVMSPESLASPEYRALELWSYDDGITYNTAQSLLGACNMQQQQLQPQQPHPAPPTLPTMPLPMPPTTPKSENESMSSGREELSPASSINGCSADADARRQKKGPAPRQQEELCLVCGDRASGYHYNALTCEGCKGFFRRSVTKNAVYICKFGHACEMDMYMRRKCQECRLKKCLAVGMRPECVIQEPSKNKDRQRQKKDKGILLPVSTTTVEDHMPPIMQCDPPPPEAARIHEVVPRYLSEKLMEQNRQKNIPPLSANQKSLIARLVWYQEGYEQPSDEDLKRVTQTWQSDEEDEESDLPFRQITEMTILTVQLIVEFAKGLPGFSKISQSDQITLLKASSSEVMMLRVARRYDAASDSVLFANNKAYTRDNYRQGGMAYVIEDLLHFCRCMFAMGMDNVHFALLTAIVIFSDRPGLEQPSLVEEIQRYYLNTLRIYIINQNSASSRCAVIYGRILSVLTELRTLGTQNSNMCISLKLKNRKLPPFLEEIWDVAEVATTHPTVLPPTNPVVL
Nature of the experiment: Agonist activity at ecdysone receptor in Bombyx mori Bm5 cells after 24 hr by luciferase reporter gene assay relative to tebufenozide. It is filed as cell-based.

For experiment [5], the target named is T3, Ecdysone receptor (Bombyx mori, UniProt P49881).
T3 sequence (P49881 whole entry): T2 sequence (whole entry)
Nature of the experiment: Agonist activity at ecdysone receptor in Bombyx mori Bm5 cells after 24 hr by luciferase reporter gene assay. The experiment is classed as cell-based. To be noted: read-out: pEC50 (converted).

Experiment [6] has as its system Bombyx mori. The experiment is described as follows: Larvicidal activity against Bombyx mori assessed as mortality applied topically after 1 week. The experiment is classed as functional.
The target in experiment [7] is T4, Ecdysone receptor (Spodoptera littoralis) (UniProt E3UJZ5).
T4 sequence (whole entry): T1 sequence (E3UJZ5 whole entry)
The experiment is described as follows: Agonist activity at ecdysone receptor in Spodoptera littoralis Sl2 cells after 24 hr by luciferase reporter gene assay relative to tebufenozide. It is filed as cell-based.

Experiment [8] is described as follows: Ratio of LD50 for Spodoptera littoralis to LD50 for Bombyx mori. It is filed as functional.

For `CC(C)(C)N(NC(=O)c1ccccc1)C(=O)c1ccc(Cl)c(Cl)c1Cl`, the Ratio EC50 in experiment [1] was 0.69. Further, the pLD50 in experiment [2] and in experiment [6] was below 5.4 each time. Besides, the EC50 in experiment [3] is 5250 nM; in experiment [5], 3630 nM. The Efficacy in experiment [4] turned out to be 79%; in experiment [7] it was 95%.
`CC(C)(C)N(NC(=O)c1ccc(Br)cc1)C(=O)c1ccccc1Cl`: the Ratio EC50 in experiment [1] stood at 0.34. The pLD50 is recorded as below 5.39 in experiment [2] and 6.27 in experiment [6]. Further, the figures for the EC50 in experiment [3] and in experiment [5] were 437 nM and 151 nM, respectively. For the same compound, the Efficacy in experiment [4] turned out to be 106%; in experiment [7], 77%. For the same compound, the Ratio in experiment [8] is above 7.59.
Turning to `Cc1ccccc1C(=O)NN(C(=O)c1ccccc1Cl)C(C)(C)C`, the Ratio EC50 in experiment [1] was determined as 0.3. Besides, the figures for the pLD50 in experiment [2] and in experiment [6] were below 5.46 and 6.69, respectively. Moreover, the EC50 in experiment [3] is 437 nM; in experiment [5], 129 nM. Besides, the Efficacy in experiment [4] was found to be 98%; in experiment [7], 124%. Further, the Ratio in experiment [8] was above 17.
As to `Cc1cc(C)cc(C(=O)N(NC(=O)c2cccc(C)c2C)C(C)(C)C)c1`, the Ratio EC50 in experiment [1] worked out at 0.68. In addition, the values for the pLD50 in experiment [2] and in experiment [6] were 6.44 and 7.29, respectively. The values for the EC50 in experiment [3] and in experiment [5] were 16.2 nM and 11 nM, respectively. Moreover, the figures for the Efficacy in experiment [4] and in experiment [7] were 82% and 63%, respectively. In addition, the Ratio in experiment [8] worked out at 7.08.
For `CC(C)(C)N(NC(=O)c1cccc(Cl)c1)C(=O)c1ccccc1Cl`, the Ratio EC50 in experiment [1] is 0.18. For the same compound, the pLD50 in experiment [2] is below 5.44; in experiment [6], 5.82. The EC50 was 1700 nM in experiment [3] and 309 nM in experiment [5]. Besides, the Efficacy came to 119% in experiment [4] and 75% in experiment [7]. Further, the Ratio in experiment [8] is above 2.4.
Take `CCc1ccc(C(=O)NC2(C(=O)c3cc(C)cc(C)c3)CCCCC2)cc1`: the Ratio EC50 in experiment [1] turned out to be 0.65. The figures for the pLD50 in experiment [2] and in experiment [6] were below 4.44 and 6.08, respectively. In addition, the EC50 in experiment [3] was 120 nM; in experiment [5], 77.6 nM. Further, the Efficacy in experiment [4] amounted to 112%; in experiment [7], 101%. In addition, the Ratio in experiment [8] was above 23.4.
As to `Cc1c(C(=O)NN(C(=O)c2ccccc2Cl)C(C)(C)C)ccc2c1CCCO2`, the Ratio EC50 in experiment [1] stood at 0.53. The pLD50 was below 4.4 in experiment [2] and 6.95 in experiment [6]. Further, the EC50 in experiment [3] was 5.37 nM; in experiment [5], 2.88 nM. For the same compound, the Efficacy in experiment [4] came to 106%; in experiment [7] it was 108%. Further, the Ratio in experiment [8] was above 355.
Regarding `COc1ccc(C(=O)NN(C(=O)c2ccccc2Cl)C(C)(C)C)cc1`, the Ratio EC50 in experiment [1] turned out to be 0.4. Moreover, the pLD50 is on record as below 5.44 in experiment [2] and 6.53 in experiment [6]. Further, the figures for the EC50 in experiment [3] and in experiment [5] were 339 nM and 135 nM, respectively. The Efficacy was found to be 126% in experiment [4] and 85% in experiment [7]. Besides, the Ratio in experiment [8] is above 12.3.
Consider `Cc1cc(C)cc(C(=O)C2(NC(=O)c3ccc4c(c3C)CCCO4)CCCCC2)c1`, for which, in experiment [1], the Ratio EC50 was found to be 1.29. The figures for the pLD50 in experiment [2] and in experiment [6] were below 5.39 and 6.53, respectively. Also, the values for the EC50 in experiment [3] and in experiment [5] were 3.39 nM and 4.37 nM, respectively. The values for the Efficacy in experiment [4] and in experiment [7] were 102% and 106%, respectively. Also, the Ratio in experiment [8] is above 13.8.
Regarding `CC(C)(C)N(NC(=O)c1ccccc1F)C(=O)c1ccccc1Cl`, in experiment [1], the Ratio EC50 turned out to be 0.5. Besides, the values for the pLD50 in experiment [2] and in experiment [6] were below 4.7 and 7.37, respectively. Moreover, the EC50 in experiment [3] was 288 nM; in experiment [5] it was 145 nM. The Efficacy stood at 93% in experiment [4] and 105% in experiment [7]. In experiment [8], the Ratio is above 468.
Take `CCc1ccc(C(=O)NN(C(=O)c2cc(C)cc(C)c2Cl)C(C)(C)C)cc1`: the Ratio EC50 in experiment [1] came to 0.34. Moreover, the pLD50 is reported as below 4.41 in experiment [2] and 4.94 in experiment [6]. In addition, the EC50 in experiment [3] was 339 nM; in experiment [5] it was 115 nM. The values for the Efficacy in experiment [4] and in experiment [7] were 85% and 83%, respectively. Also, the Ratio in experiment [8] is above 3.39.
`Cc1cc(C)cc(C(=O)N(NC(=O)c2ccc(C(C)(C)C)cc2)C(C)(C)C)c1`: in experiment [1], the Ratio EC50 was determined as 1.01. The pLD50 in experiment [2] turned out to be 4.72; in experiment [6], 7.19. The EC50 in experiment [3] and in experiment [5] was 7.08 nM in each case. Further, the Efficacy stood at 88% in experiment [4] and 69% in experiment [7]. The Ratio in experiment [8] was above 295.
Take `CC(C)(C)N(NC(=O)c1ccc(Cl)cc1)C(=O)c1ccccc1` [HALOFENOZIDE]: the Ratio EC50 in experiment [1] was determined as 0.17. The pLD50 in experiment [2] is listed as 5.43; in experiment [6] it was 6.52. For the same compound, the EC50 in experiment [3] is 457 nM; in experiment [5] it was 77.6 nM. For the same compound, the Efficacy in experiment [4] was determined as 95%; in experiment [7], 107%. In experiment [8], the Ratio is 12.3.
Consider `Cc1cc(C)cc(C(=O)N(NC(=O)c2ccccc2)C(C)(C)C)c1`, for which the Ratio EC50 in experiment [1] was 0.39. Moreover, the pLD50 in experiment [2] is below 5.49; in experiment [6], 5.98. Further, the EC50 was 501 nM in experiment [3] and 200 nM in experiment [5]. Moreover, the Efficacy in experiment [4] was 118%; in experiment [7] it was 75%. Also, the Ratio in experiment [8] was above 3.09.
For `Cc1cc(C)c(Cl)c(C(=O)N(NC(=O)c2ccc3c(c2C)CCCO3)C(C)(C)C)c1`, the Ratio EC50 in experiment [1] is 0.49. Further, the pLD50 in experiment [2] is below 4.36; in experiment [6], 5.01. The figures for the EC50 in experiment [3] and in experiment [5] were 67.6 nM and 33.1 nM, respectively. Also, the Efficacy in experiment [4] was 95%; in experiment [7], 114%. Moreover, in experiment [8], the Ratio was above 4.47.
For `CC(C)(C)N(NC(=O)c1ccccc1)C(=O)c1ccccc1` [RH-5849], in experiment [1], the Ratio EC50 turned out to be 0.34. In addition, the pLD50 in experiment [2] is 4.75; in experiment [6] it was 5.55. For the same compound, the EC50 in experiment [3] is 1290 nM; in experiment [5] it was 437 nM. The results for the Efficacy in experiment [4] and in experiment [7] were 87% and 91%, respectively. In experiment [8], the Ratio is 17.8.
Regarding `COc1cccc(C(=O)NN(C(=O)c2cc(C)cc(C)c2)C(C)(C)C)c1C` [METHOXYFENOZIDE], the Ratio EC50 in experiment [1] is 0.56. The values for the pLD50 in experiment [2] and in experiment [6] were 7.68 and 8.18, respectively. Also, the results for the EC50 in experiment [3] and in experiment [5] were 6.03 nM and 3.39 nM, respectively. Besides, the values for the Efficacy in experiment [4] and in experiment [7] were 103% and 100%, respectively. For the same compound, the Ratio in experiment [8] came to 3.16.
As for `CCc1ccc(C(=O)NN(C(=O)c2ccccc2)C(C)(C)C)cc1`, the Ratio EC50 in experiment [1] came out at 0.16. The pLD50 in experiment [2] is below 5.49; in experiment [6], 7.09. In addition, the EC50 was 110 nM in experiment [3] and 17.4 nM in experiment [5]. Further, the results for the Efficacy in experiment [4] and in experiment [7] were 84% and 110%, respectively. The Ratio in experiment [8] is above 39.8.
`CCOc1ccccc1C(=O)N(NC(=O)c1ccc(Cl)cc1)C(C)(C)C`: the Ratio EC50 in experiment [1] is 0.81. In addition, the EC50 was 9550 nM in experiment [3] and 7760 nM in experiment [5]. Moreover, the Efficacy was found to be 74% in experiment [4] and 80% in experiment [7].
The corresponding values for `CC(C)c1ccc(C(=O)NN(C(=O)c2ccccc2Cl)C(C)(C)C)cc1` are 0.38, 17.4 nM, 6.61 nM, 116% and 95%.
